Counter-ions that a name gives are not always drawn.
Key:
[1] = tested on: conscious beagle dogs; assay: In vivo uroselectivity study: phenylephrine response on MAP and IUP; parameters: species or system dog; settings: 30 μg/kg p.o.
Description: In order to assess the uroselectivity in vivo, the effects of these compounds were studied on mean arterial pressure (MAP) and intraurethral pressure (UP) in conscious beagle dogs as per the method of Brune et al. (Pharmacol., 1996, 53:356). Briefly, male dogs were instrumented for chronic continuous measurement of arterial blood pressure by implanting a telemetry transmitter (TL11M2-D70-PCT, Data Sci. International, St. Paul, Minn. USA) into the femoral artery, two weeks prior to the study. During the recovery period, the animal was acclimatized to stay in the sling restraint. On the day of testing, overnight fasted animal was placed in the sling restraint. A Swan-Ganz. Balloon tipped catheter was introduced into the urethra at the level of prostate and the balloon was inflated (Brune. et. al. 1996). After recording the base line readings, effect of 16 μg/kg, phenylephrine (i.v.) on MAP and IUP was recorded. The response of phenylephrine to MAP and […] were recorded at 0.5, 1, 2, 3, 4, 6, 9 and 24 hours after the oral administration of vehicle or the test drug. The changes in MAP were recorded on line using Dataquest Software (Data Sci. International, St. Paul, Minn. USA). The change in phenylephrine response on […] administration after the test drug administration was calculated as percent change of that of control values. Area under curve was calculated, and the ratio of the values for MAP and IUP was used for calculating the uroselectivity (Table III).

[2] = biological target: T1, α1A adrenoceptor (Rattus norvegicus, UniProt P43140); assay: Radioligand binding, [3H] prazosin displacement, rat submaxillary membranes
T1 construct: from tissue; host or cells: rat submaxillary gland membranes
T1 sequence (P43140 1-466): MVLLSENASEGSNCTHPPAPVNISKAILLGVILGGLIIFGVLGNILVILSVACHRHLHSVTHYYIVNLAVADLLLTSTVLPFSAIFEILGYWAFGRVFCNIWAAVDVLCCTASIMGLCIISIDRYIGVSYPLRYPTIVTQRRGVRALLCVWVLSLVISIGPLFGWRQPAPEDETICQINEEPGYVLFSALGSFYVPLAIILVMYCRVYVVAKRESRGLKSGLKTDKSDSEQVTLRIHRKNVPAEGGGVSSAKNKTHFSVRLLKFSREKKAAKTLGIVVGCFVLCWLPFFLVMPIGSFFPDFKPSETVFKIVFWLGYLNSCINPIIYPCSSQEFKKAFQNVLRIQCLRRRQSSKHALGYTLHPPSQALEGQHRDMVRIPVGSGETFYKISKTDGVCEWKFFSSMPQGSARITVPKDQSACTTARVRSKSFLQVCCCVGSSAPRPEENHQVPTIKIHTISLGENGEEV
How it was run: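 Displacement of [3H]prazosin measured by filtration and counting, with Ki from IC50 via Cheng–Prusoff and nonspecific binding set by 300 nM prazosin. Native rat submaxillary (α1A) or liver (α1B) membranes, 150-250 μg protein, 1 h at 24-25° C in Tris/EDTA pH 7.4.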

[3] = percent change of phenylephrine response over 24 hours

Ki ([2]; [3H] prazosin displacement, rat submaxillary membranes, read-out: Affinity (Ki) α1A (Rat Submaxillary)): 0.98 nM
α1B/α1A ([2]; ratio of binding affinities, rat liver / rat submaxillary): 130
Structure (SMILES): CC(C)Oc1ccccc1N1CCN(CCCN2C(=O)C3CC(O)C(O)CC3C2=O)CC1 (centres unmarked) [Compound No. 23, 2-[3-{4-(2-Isopropoxyphenyl)piperazin-1-yl}propyl]-5,6-dihydroxy-3a,4,5,6,7,7a, hexahydro-1H-isoindole-1,3(2H)-dione-hydrochloride]
Uroselectivity Ratio IUP/MAP [1]: 5.5
Area Under Curve IUP [1, 3]: 524
Area Under Curve MAP [1, 3]: 95
